≈ marks a conversion by molar mass, not a printed value.
How the values were obtained:
[1] = tested on: LoVo (colon adenocarcinoma); assay: cells; conditions: for IC50 (concentration inhibiting 50% colony formation), LoVo: colony assay, 4 h treatment; for cytotoxic activity against LoVo, in words: both cell lines
Text: (§1) The citotoxic activity is reported as IC50, the concentration inhibiting 50% of colony formation, calculated on concentration response curves. Resistance index R.I. is the ratio between the IC50 on resistant cells and the IC50 on sensitive cells.

[2] = tested on: LoVo/DX (colon adenocarcinoma resistant to doxorubicin); assay: cells; conditions: for resistance index, in words: LoVo/DX vs LoVo; for IC50 (concentration inhibiting 50% colony formation), LoVo/DX / R.I. = Resistance Index = (IC50 LoVo/DX)/(IC50 LoVo): colony assay, 4 h treatment; for cytotoxic activity against LoVo/DX, in words: both cell lines; for R.I. = Resistance Index = (IC50 LoVo/DX)/(IC50 LoVo): ratio LoVo/DX to LoVo
Text: as §1

[3] = tested on: P388 murine leukaemia resistant to doxorubicin (P388/DX); assay: antitumor activity on P388/DX leukaemia in vivo; set-up: species or system murine (BD2F1 mice); conditions: for T/C (median survival time of treated mice/median survival time of controls × 100): P388/DX 10^5 cell/mouse i.v. in BD2F1 mice, compound i.v. one day after tumor transplantation, at optimal dose; for T/C (median survival time of treated mice/median survival time of controls × 100) / O.D. (Optimal Dose): in Tween 80 (10%); for O.D. (Optimal Dose): P388/DX in BD2F1 mice, i.v. one day after tumor transplantation; for in vivo activity compared with doxorubicin, in words: P388 murine leukaemia resistant to doxorubicin, BD2F1 mice
Text: The compounds were suspended in Tween 80 (10%) and injected i.v. one day
after tumor transplantation.
^(2) Median survival time of treated mice/Median survival time of

Compound | IC50 (concentration inhibiting 50% colony formation), LoVo ([1]; LoVo) [µg/mL] | cytotoxic activity against LoVo, in words [1] | resistance index, in words [2] | IC50 (concentration inhibiting 50% colony formation), LoVo/DX ([2]; LoVo/DX) [µg/mL] | cytotoxic activity against LoVo/DX, in words [2] | R.I. = Resistance Index = (IC50 LoVo/DX)/(IC50 LoVo) [2] | T/C (median survival time of treated mice/median survival time of controls × 100) [3] [%] | O.D. (Optimal Dose) [3] [mg/kg] | in vivo activity compared with doxorubicin, in words [3] | IC50 ([1]; Homo sapiens, LoVo, 4 h, read-out: IC50 (concentration inhibiting 50% colony formation), LoVo) [µg/mL] | IC50 ([2]; Homo sapiens, LoVo/DX, 4 h, read-out: IC50 (concentration inhibiting 50% colony formation), LoVo/DX) [µg/mL]
3'-deamino-3'-[1-aziridinyl]-4'-O-methansulfonyl daunorubicin [Compound 1a] | 0.013 | high activity | low resistance index | 0.022 | high activity | 1.7 | 190 | 2.2 | strikingly higher activity than doxorubicin |  | 
3'-deamino-3'-[1-aziridinyl]-4'-O-methansulfonyl doxorubicin [Compound 2c] | 0.0027 | high activity | low resistance index | 0.024 | high activity | 9.2 | 195 | 1.8 | strikingly higher activity than doxorubicin |  | 
3'-deamino-3'-[1-aziridinyl]-4'-O-methansulfonyl-14-nicotinate-doxorubicin [Compound 2a] | 0.014 |  | low resistance index | 0.04 |  | 2.9 | 200 | 2.5 | strikingly higher activity than doxorubicin |  | 
CC(=O)[C@]1(O)Cc2c(O)c3c(c(O)c2[C@@H](O[C@H]2C[C@H](N4CC4)[C@H](OS(C)(=O)=O)[C@H](C)O2)C1)C(=O)c1ccccc1C3=O [Compound 1b, 4-demethoxy-3'-deamino-3'-[1-aziridinyl]-4'-O-methansulfonyl daunorubicin] |  | high activity | low resistance index |  | high activity | 0.9 | 240 | 3.8 | strikingly higher activity than doxorubicin | 0.027 (≈ 0.0449 µM) | 0.026 (≈ 0.0432 µM)
COc1cccc2c1C(=O)c1c(O)c3c(c(O)c1C2=O)C[C@@](O)(C(=O)CO)C[C@@H]3O[C@H]1C[C@H](N)[C@H](O)[C@H](C)O1 [doxorubicin, reference compound] |  |  |  |  |  |  |  | 16.9 |  |  | 
